# Measurements published in patent publication US20220257552A1, “METHODS OF PRESCREENING AND TREATING BREAST CANCERS WITH SELECTIVE ANDROGEN RECEPTOR MODULATORS” (priority 2021, published 2022).
# Assays:
# GR = target: T1, GR (Rattus norvegicus, UniProt P06536); assay: GR transactivation in HEK-293 cells; format: cell-based
# T1 construct: expressed in transfected cells
# Method: Rat GR, MR, PR, ER-α and ER-β were individually cloned into a pCR3.1 vector backbone. Sequencing was performed to verify the absence of any mutations. HEK-293 cells were plated at 90,000 cells per well of a 24 well plate in Dulbecco's Minimal Essential Media supplemented with 5% charcoal-stripped FBS. […] Luciferase assays were performed 48 h after transfection. Transcriptional activation values are represented as firefly luciferase normalized to renilla luciferase.
# MCF-7-AR tumors = assay: Phospho MAPK array of MCF-7-AR tumors; set-up: species or system mice; details: mouse, in vivo
# Method: Protein from MCF-7-AR tumors that were treated with vehicle or compound of Formula VIII were extracted and incubated with phospho MAPK array to determine the effect of compound of Formula VIII on phosphorylation of various kinases.
# MCF-7-GFP cells = format: cell-based, human
# Description: Tumor microenvironment contains tumor epithelial cells, stromal cells, cancer-associated fibroblasts (CAFs), and endothelial cells. The collective function of these cells promotes the aggressive growth of tumors due to secretion of paracrine factors. The CAFs are important for the sustained growth of cancers, and they differ from normal fibroblasts in their capacity to secrete factors that promote proliferation of cancer cells. […] Medium was collected over a period of 10 days and pooled. CAFs were stained with SRB to evaluate the effect of AR ligands on proliferation.
# Conditioned medium was replaced on days 4 and 7 and the cells were stained with SRB to measure viability.
# [1] = Completed and ongoing clinical studies, tolerability; format: in vivo, human; details: single doses up to 100 mg, multiple doses up to 30 mg once daily up to 14 days
# Description: These include: 1. Protocol G100401, a Phase 1 single ascending dose study in 96 healthy, young, male volunteers; 2. Protocol G100402, a Phase 1 multiple ascending dose study in 50 healthy, young, male volunteers, and 23 elderly male volunteers with truncal obesity; 3. Protocol G100503, a Phase 1 single dose pharmacokinetic study to assess the effect of a dosage regimen that simulates a sustained release formulation to an immediate release formulation in 18 healthy, young male volunteers and 18 postmenopausal women; 4. Protocol G100506, a Phase 1 single dose pharmacokinetic study to assess the relative bioavailability of a 3 mg hard shell capsule formulation to be used during continued clinical development and to assess the effect of food on the pharmacokinetics of the 3 mg softgel formulation in 27 healthy, young, male volunteers; 5. Protocol 006, a Phase 1 single dose and multiple dose pharmacokinetic study in 24 postmenopausal, Japanese women; 6. Protocol G200501, a Phase 2 study in 60 postmenopausal women and 60 elderly men to assess lean body mass and physical function; 7. Protocol 003, a Phase 1b study in 44 postmenopausal women; 8. Protocol G200502, a Phase 2b study in 159 men and postmenopausal women with cancer to assess lean body mass and physical function; 9.
# [2] = system: MCF-7 cells expressing AR; assay: MCF-7-AR cell viability (SRB); format: cell-based; details: 6 days
# Method: After 6 days of treatment, cells were harvested, and the number of cells was counted. […] Medium was changed after 3 days and re-treated. Cells were fixed after 6 days of treatment and the cell viability was measured by SRB assay. […] Medium was changed, and the cells were re-treated on days 4 and 7. Medium was collected, pooled from triplicates, and stored in −80° C. After 10 days of treatment, cells were fixed, and cell viability was measured using SRB. MCF-7 cells stably transfected with GFP (MCF-7-GFP) were plated in growth medium. Twenty-four hours after plating, cells were fed with the conditioned medium obtained from patient-derived fibroblasts as indicated above. Cells were fed for 10 days with conditioned medium, with medium changed on days 4 and 7. After 10 days of treatment, cells were fixed, and the viability was measured by SRB assay. […] AR-positive, but ER-negative HCI-9 PDX was surgically implanted as 1 mm^3 fragments under the mammary fat pad in NSG mice (n=8-10/group). […] Tumor volume was measured thrice weekly. […] ER-α from HCI-13 was cloned into pCR3.1 vector. […] Values are expressed as average±S.E. from n=3-4/data point.
# Cells were plated at varying densities in growth medium in 96 well plates. Cells were treated as indicated in the figures and viability measured using sulforhodamine B (SRB) or the number of cells counted using Coulter counter.
# [3] = system: MDA-MB-231 triple negative breast cancer cells; assay: SRB cell viability, MDA-MB-231 cells infected with AR adenovirus; format: cell-based
# Method: The SRB assay was used to determine cell number during cytotoxocity experiments. The following protocol was used: • 1. Cells were detached with 0.25% trypsin. • 2. Experimental cultures were cultured in 96-well microtiter plates (200 μL growth medium per well; 1,000-200,000 cells per well). • 3. Cultures were fixed with 50 μL 50% TCA (4° C.). (see cell fixation protocol for details). • 4. Fixed cells were stained with 50 μL 0.4% (wt/vol) SRB in 1% acetic acid for 10 minutes. • 5. SRB was removed and the cultures were quickly* rinsed 5 times with 1% acetic acid to remove unbound dye.** • 6. Cultures were air-dried overnight until there was no visible moisture. • 7. The cellular protein-bound SRB was dissolved with 200 μL unbuffered Tris base (10 mM, pH 10.5) for 30 minutes on a rocking platform shaker. • 8. Absorbance was read at 540 nm. * quickly performing rinsing process was to prevent desorption of protein-bound SRB ** completely removed residual wash solution by sharply flicking plates over sink.
# The following protocol was used for fixing cells: • a. 50 μL of 50% TCA (4° C.) was gently layered on the top of growth medium in each well to make a final TCA concentration of 10%. • b. Cultures were incubated at 4° C. for 1 hour. • c. Cultures were washed 5 times with tap water to remove TCA, growth medium, low-molecular-weight metabolites, and serum protein. • d. Plates were air-dried until there was no visible moisture.
# Cells were treated in charcoal stripped FBS (FIGS. 4A, 4C, 4E, 4G, 4I, 4K, 4M and 4O) or full serum (FIGS. 4B, 4D, 4F, 4H, 4J, 4L, 4N and 4P) for 3 days, fixed and stained with […] (SRB) to measure cell viability. Anti-proliferative IC50 values were calculated in breast cancer cells and compared to transactivation values, i.e., EC50 (agonists) and IC50 (antagonists) values, generated in HEK-293 cells.
# T1 sequence (P06536 whole entry): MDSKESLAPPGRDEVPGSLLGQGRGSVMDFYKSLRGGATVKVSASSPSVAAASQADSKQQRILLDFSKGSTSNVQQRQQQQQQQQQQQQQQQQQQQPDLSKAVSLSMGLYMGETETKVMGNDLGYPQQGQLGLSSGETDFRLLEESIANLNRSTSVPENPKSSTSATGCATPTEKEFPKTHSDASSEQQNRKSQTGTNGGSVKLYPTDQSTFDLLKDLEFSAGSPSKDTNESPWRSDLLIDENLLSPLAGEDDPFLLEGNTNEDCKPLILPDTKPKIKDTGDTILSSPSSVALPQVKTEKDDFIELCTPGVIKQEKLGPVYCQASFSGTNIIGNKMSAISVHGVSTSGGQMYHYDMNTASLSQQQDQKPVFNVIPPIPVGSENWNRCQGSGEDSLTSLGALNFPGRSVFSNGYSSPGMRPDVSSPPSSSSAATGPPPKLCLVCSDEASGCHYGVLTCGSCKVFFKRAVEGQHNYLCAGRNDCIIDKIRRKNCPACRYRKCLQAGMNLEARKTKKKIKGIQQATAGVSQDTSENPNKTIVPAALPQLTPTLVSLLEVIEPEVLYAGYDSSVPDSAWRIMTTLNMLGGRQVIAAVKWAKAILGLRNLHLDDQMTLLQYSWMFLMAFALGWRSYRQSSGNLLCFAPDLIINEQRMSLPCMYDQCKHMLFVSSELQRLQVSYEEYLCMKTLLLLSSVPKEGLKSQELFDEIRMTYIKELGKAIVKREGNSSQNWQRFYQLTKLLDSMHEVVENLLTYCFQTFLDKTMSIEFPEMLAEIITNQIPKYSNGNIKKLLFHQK
smiles,measurement,setting,value
"C[C@](O)(COc1ccc(C#N)cc1)C(=O)Nc1ccc(C#N)c(Cl)c1 [Formula VIII, (S)—N-(3-chloro-4-cyanophenyl)-3-(4-cyanophenoxy)-2-hydroxy-2-methylpropanamide]","GR-mediated transactivation, agonist mode",GR; all tested concentrations,did not induce
same,"dexamethasone-induced GR-mediated transactivation, antagonist mode",GR; co-incubation,failed to alter
same,JNK phosphorylation,MCF-7-AR tumors,upregulated
"C[C@](O)(COc1ccc(C#N)cc1)C(=O)Nc1ccc(C#N)c(C(F)(F)F)c1 [Formula IX, (S)—N-(4-Cyano-3-(trifluoromethyl)phenyl)-3-(4-cyanophenoxy)-2-hydroxy-2-methylpropanamide]",proliferation of breast cancer CAFs,MCF-7-GFP cells,"neither AR agonist, DHT and Formula IX, nor AR antagonist enzalutamide, affected the proliferation"
same,proliferation of MCF-7-GFP cells fed conditioned medium from treated CAFs,MCF-7-GFP cells; 10 days,inhibited the proliferation
same,tolerability,[1],generally well-tolerated
same,proliferation / cell viability,[2],inhibited proliferation
same,growth inhibitory effects in the presence of bicalutamide,"[3]; AR-positive cells, 10 μM bicalutamide",weakened growth inhibitory effects
same,cell growth,"[3]; cells with AR, 3 days, SRB",inhibited
